Measurements reported in patent US5045566A, “Novel imidate insecticides” (ICI Americas Inc., priority 1989, dated 1991).

Tests used:
Format in all cases: in vivo
[1] = test system: Tobacco Budworm [Heliothis virescens (Fabricius)] eggs; test: Tobacco budworm eggs (TBW-E); conditions: percent in solution; 2-day old eggs
Description: (§1) The compounds in Tables 1 and 2 above were tested for insecticidal activity using the following testing procedures. LC50 values, based on the results of these tests and calculated according to dosage-mortality curves, are expressed in Table 3.
Tobacco Budworm [Heliothis virescens (Fabricius)]:
(b). Eggs: Paper towel patches of 2-day old eggs of the tobacco budworm were dipped in acetone solutions of the test compound and placed in petri dishes containing a portion of larval rearing medium. Treated eggs were maintained at 78° F. and mortality was recorded after all control eggs had hatched and the young larvae were feeding on the media. Test concentrations ranged from 0.1% downward. The LC-50 value is expressed below in Table 3 under the heading "TBW-E" in terms of percent of the test compound in the solution.

[2] = test system: Housefly [Musca domestica]; test: Housefly contact mortality in dishes (HF), 48 hours; conditions: μg of test compound per 25 female flies
Description: as §1
Housefly [Musca domestica]:
Test compounds were diluted in acetone and aliquots pipetted onto the bottom of aluminum dishes. To ensure even spreading of the chemical on the bottom of the dishes, 1 ml of acetone containing 0.01% peanut oil was also added to each dish. After all solvents had evaporated, the dishes were placed in circular cardboard cages containing 25 female houseflies, 1-2 days old. The cages were covered on the bottom with cellophane and on the top with tulle netting, and each contained a sugar-water saturated cotton plug for maintenance of the flies. Mortality was recorded after 48 hours. Test levels ranged from 100 μg/25 female houseflies downward. The LC-50 value is expressed below in Table 3 under the heading "HF", in terms of μg of the test compound per 25 female flies.

[3] = test system: Black Bean Aphid [Aphis fabae (Scop.)]; test: Black bean aphid spray test on nasturtium (BBA), 48 hours; conditions: percent of test compound in sprayed solution
Description: as §1
Black Bean Aphid [Aphis fabae (Scop.)]:
Nasturtium plants (Tropaeolum sp.) approximately 5 cm tall, were transplanted into sandy loam soil in small cups and infested with 25-50 black bean aphids of mixed ages. Twenty-four hours later they were sprayed to the point of runoff with 50-50 acetone-water solutions of the test compounds. Treated plants were held in the greenhouse and mortality was recorded after 48 hours. Test concentrations ranged from 0.05% downward. The LC-50 value is expressed below in Table 3 under the heading "BBA" in terms of percent of the test compound in the sprayed solution.

[4] = test system: Cabbage Looper [Trichoplusia ni (Hubner)]; test: Cabbage looper leaf dip (CL), 3-5 days; conditions: percent in solution, second-instar larvae
Description: as §1
Cabbage Looper [Trichoplusia ni (Hubner)]:
Test compounds were diluted in a 50-50 acetone-water solution. Cotyledons of hyzini squash (Calabacita abobrinha), approximately 1×1.5 inches, were immersed in the test solutions for 2-3 seconds and placed on a wire screen to dry. The dried leaves were placed in petri dishes containing a moistened piece of filter paper and infested with 5 second-instar cabbage looper larvae. The dishes were placed in a high humidity chamber. Mortality of the larvae was recorded 3-5 days later. Test concentrations ranged from 0.1% downward. The LC-50 value is expressed below in Table 3 under the heading "CL" in terms of percent of the test compound in solution.

| SMILES | LC50 TBW E (eggs) [1] [%] | LC50 HF [2] [µg] | LC50 BBA [3] [%] | LC50 CL [4] [%] |
| --- | --- | --- | --- | --- |
| CC(C)(C)C(=Nc1cccc(Cl)c1)OCc1cccc(Oc2ccccc2)c1 [Compound 12] | > 0.1 | > 100 | > 0.05 | 0.008 |
| CC1CC1C(=Nc1ccc(Cl)cc1)OCc1cccc(Oc2ccccc2)c1 (stereo not drawn) [Compound 15] | > 0.1 | > 100 | > 0.05 | 0.025 |
| CC(C)C(=Nc1cc(Cl)c(Cl)cc1Cl)OCc1cccc(Oc2ccccc2)c1 [Compound 18] | 0.09 | > 100 | 0.003 | 0.008 |
| CC(C)C(=Nc1c(Cl)cc(Cl)cc1Cl)OCc1cccc(Oc2ccccc2)c1 [Compound 19] | > 0.1 | > 100 | 0.05 | < 0.1 |
| COC(C)C(=Nc1ccc(Cl)cc1)OCc1cccc(Oc2ccccc2)c1 (stereo not drawn) [Compound 22] | 0.08 | 15 | 0.01 | 0.004 |
| Clc1cccc(N=C(OCc2cccc(Oc3ccccc3)c2)C2CC2)c1 [Compound 24] | 0.1 | 25 | 0.01 | 0.005 |
| CC(C)(C)C(=Nc1ccc(F)cc1)OCc1cccc(Oc2ccccc2)c1 [Compound 48] | > 0.05 | > 100 | > 0.05 | 0.03 |
| CC(C)C(=Nc1cc(F)ccc1F)OCc1cccc(Oc2ccccc2)c1 [Compound 56] | > 0.05 | 91 | 0.03 | 0.01 |
| CC(C)C(=Nc1cc(F)c(F)cc1F)OCc1cccc(Oc2ccccc2)c1 [Compound 58] | 0.06 | 16 | 0.003 | 0.002 |
| COc1cc(N=C(OCc2cccc(Oc3ccccc3)c2)C(C)C)cc(C(F)(F)F)c1 [Compound 76] | 0.05 | 20 | 0.003 | 0.002 |
| CC(C)C(=Nc1cc(C(F)(F)F)cc(C(F)(F)F)c1)OCc1cccc(Oc2ccccc2)c1 [Compound 78] | > 0.1 | > 100 | 0.03 | 0.0025 |
| CC(C)C(=Nc1ccc(Br)cc1F)OCc1cccc(Oc2ccccc2)c1 [Compound 79] | 0.05 | 6 | 0.03 | 0.003 |
| FC(F)(F)c1cccc(N=C(OCc2cccc(Oc3ccccc3)c2)C2CC2)c1 [Compound 86] |  | 65 | < 0.05 | 0.013 |
| CC(C)C(=Nc1ccc(Cl)cc1Cl)OCc1cccc(Oc2ccccc2)c1 [Compound 311] | 0.1 | 22 |  | 0.0017 |
| CC(C)C(=Nc1ccc(Cl)cc1Cl)OCc1cccc(Oc2ccc(F)cc2)c1 [Compound 312] | > 0.1 | > 100 |  | 0.006 |
| CC(C)C(=Nc1ccc2c(c1)OCO2)OCc1ccc(F)c(Oc2ccc(Cl)cc2)c1 [Compound 313] | 0.013 | > 100 |  | 0.00025 |
| CCC(C)C(=Nc1ccc(C(C)C)cc1)OCc1cccc(Oc2ccccc2)c1 (stereo not drawn) [Compound 317] | 0.03 | > 100 |  | 0.0045 |
| CC(C)(F)C(=Nc1ccc(F)c(F)c1)OCc1cccc(Oc2ccc(F)cc2)c1 [Compound 318] | > 0.1 | 19 |  | 0.0007 |
| CC(C)(F)C(=Nc1cccc(C(F)(F)F)c1)OCc1cccc(Oc2ccc(F)cc2)c1 [Compound 319] | > 0.1 | 44 |  | 0.0007 |
| CCC(=Nc1ccc(C(C)C)cc1)OCc1cccc(Oc2ccc(F)cc2)c1 [Compound 320] | > 0.1 | > 100 |  | 0.0075 |
| CCC(CC)C(=Nc1ccc(C(C)C)cc1)OCc1cccc(Oc2ccccc2)c1 [Compound 321] | > 0.1 | > 100 |  | 0.05 |

| SMILES | LC50 TBW E (eggs) [1] [%] | LC50 HF [2] [µg] | LC50 BBA [3] [%] | LC50 CL [4] [%] |
| --- | --- | --- | --- | --- |
| CC(C)c1ccc(N=C(OCc2cccc(Oc3ccc(F)cc3)c2)C(C)(C)C)cc1 [Compound 322] | > 0.1 | > 100 |  | 0.007 |
| FC(F)(F)c1ccc(Oc2ccc(COC(=Nc3ccc(Cl)cc3)C(Cl)Cl)cc2)nc1 [Compound 453] |  | > 100 | > 0.05 | 0.1 |
| CC(C)C(=Nc1ccc2c(c1)OCO2)OCc1c(F)c(F)c(F)c(F)c1F [Compound 464] | > 0.1 | > 100 |  | 0.08 |
| CC(C)C(=Nc1ccc2c(c1)OCO2)OCc1cccc(Oc2ccccc2)n1 [Compound 467] | 0.04 | 6 |  | 0.003 |
| CC(C)C(=Nc1ccc(F)c(Cl)c1)OCc1cccc(OCc2ccccc2)c1 [Compound 472] | > 0.1 | > 100 |  | 0.0025 |
| CC(C)C(=Nc1ccc(F)c(Cl)c1)OCc1ccc(F)c(Br)c1 [Compound 473] | > 0.1 | > 100 |  | 0.025 |
| CC(C)C(=Nc1ccc(F)c(Cl)c1)OCc1coc(Cc2ccccc2)c1 [Compound 474] | > 0.1 | 8 |  | 0.0012 |
| CC(C)C(=Nc1cccc(C(F)(F)F)c1)OCc1ccc(OCc2ccccc2)cc1 [Compound 476] | > 0.1 | > 100 |  | 0.015 |
| C=CCOc1cccc(COC(=Nc2ccc(Cl)c(Cl)c2)C(C)C)c1 [Compound 481] | > 0.1 | > 100 |  | 0.015 |
| CC(C)C(=Nc1ccc(Cl)cc1)OCc1coc(Cc2ccccc2)c1 [Compound 484] | > 0.1 | 16 |  | 0.003 |
| CC(C)C(=Nc1ccc(F)c(F)c1)OCc1coc(Cc2ccccc2)c1 [Compound 485] | > 0.1 | 24 |  | > 0.1 |
| CC(C)C(=Nc1ccc(F)c(Cl)c1)OCc1ccc(OCc2ccc(F)cc2)cc1 [Compound 487] | > 0.1 | > 100 |  | 0.023 |
| CC(C)C(=Nc1cccc(C(F)(F)F)c1)OCc1ccc(OCc2ccc(F)cc2)cc1 [Compound 488] | > 0.1 | > 100 |  | 0.025 |
| CC(C)C(=Nc1cccc(C(F)(F)F)c1)OCc1cccc(OCc2ccc(F)cc2)c1 [Compound 489] | > 0.1 | > 100 |  | < 0.1 |
| CC(C)C(=Nc1ccc(F)cc1)OCc1coc(Cc2ccccc2)c1 [Compound 491] | 0.08 | 9 |  | 0.0028 |
| CC(C)C(=Nc1cccc(C(F)(F)F)c1)OCc1cccc(Oc2ccc(Br)cc2)n1 [Compound 493] | 0.05 | 36 |  | 0.0008 |
| Cc1ccc(Oc2cccc(COC(=Nc3ccc(F)c(Cl)c3)C(C)C)n2)cc1 [Compound 494] | > 0.1 | 34 |  | 0.003 |
| Cc1ccc(Oc2cccc(COC(=Nc3cccc(C(F)(F)F)c3)C(C)C)n2)cc1 [Compound 495] | 0.1 | > 100 |  | 0.012 |
| CC(C)C(=Nc1ccc(C(C)(C)C)cc1)OCc1cccc(Oc2ccccc2)n1 [Compound 496] | > 0.1 | > 100 |  | 0.006 |
| CC(C)C(=Nc1ccc(C(C)(C)C)cc1)OCc1cccc(Oc2ccc(Cl)cc2)n1 [Compound 497] | > 0.1 | > 100 |  | 0.0075 |
